Assay results from PubChem BioAssay (NCI).
“And” between values parts separate entries of the source, which are not always exact repeats. Equal values may be shown once.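 Five concentrations, 48 hours, 96-well plates. Here, GI50 denotes the concentration required for 50% inhibition of growth. At the TGI there is no net growth.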

Tests used:
Assay in all cases: inhibition of tumour cell growth, NCI panel, 48 h
A498 renal = tested on: A498 renal
CAKI-1 renal = tested on: CAKI-1 renal
HOP-92 NSCLC = tested on: HOP-92 NSCLC
M14 melanoma = tested on: M14 melanoma
MCF7 breast = tested on: MCF7 breast
NCI-H226 lung = tested on: NCI-H226 lung
NCI/ADR-RES ovarian = tested on: NCI/ADR-RES ovarian
OVCAR-8 ovarian = tested on: OVCAR-8 ovarian
PC-3 prostate = tested on: PC-3 prostate
RXF 393 renal = tested on: RXF 393 renal
SR leukemia = tested on: SR leukemia
MDA-N = tested on: MDA-N
SK-OV-3 ovarian = tested on: SK-OV-3 ovarian

Row | SMILES | TGI (A498 renal) | GI50 (CAKI-1 renal) | GI50 (HOP-92 NSCLC) [nM] | TGI (HOP-92 NSCLC) [µM] | GI50 (M14 melanoma) [nM] | TGI (M14 melanoma) | GI50 (MCF7 breast) [nM] | GI50 (NCI-H226 lung) [nM] | TGI (NCI-H226 lung) [µM] | GI50 (NCI/ADR-RES ovarian) [µM] | TGI (NCI/ADR-RES ovarian) [µM] | GI50 (OVCAR-8 ovarian) [nM] | TGI (OVCAR-8 ovarian) | TGI (PC-3 prostate) [µM] | TGI (RXF 393 renal) [µM] | TGI (SR leukemia) [µM] | TGI (CAKI-1 renal) [µM] | TGI (MCF7 breast) [µM] | TGI (MDA-N) [µM] | TGI (SK-OV-3 ovarian) [µM]
1 | COc1ccc(CC2C(=O)NC(C)C(=O)N(C)C3Cc4ccc(cc4)Oc4cc(ccc4O)CC(C(=O)NC(C)C(=O)NC(C)C(=O)N2C)N(C)C3=O)cc1 (stereo not drawn) | 14.7 nM and 70.9 nM | 497 nM and 647 nM and 72.7 nM | 0.108 | 0.000866 | 10.7 | 0.518 µM and 0.36 µM | < 0.1 | 9.29 | 0.624 | 15.2 | 78.6 | 0.34 | 0.144 µM and 0.0379 µM | 0.000246 | 0.0731 | 0.112 | – | – | – | –
2 | COc1ccc(-c2c(C(C)=O)c(C)n(C3OC(CO)C(O)C(O)C3O)c(=S)c2C#N)cc1 (stereo not drawn) | – | – | – | – | – | > 100 µM | – | – | – | – | > 100 | – | > 100 µM | > 100 | > 100 | > 100 | > 100 | > 100 | > 100 | > 100
3 | NC(CO)c1ccccc1 (stereo not drawn) | – | – | – | > 100 | – | > 100 µM | – | – | > 100 | – | – | – | > 100 µM | – | > 100 | > 100 | > 100 | – | – | > 100
4 | CCOC(=O)C(Cc1c(-c2[nH]c3ccccc3c2CC(NC(=O)CNC(C)=O)C(=O)OCC)[nH]c2ccccc12)NC(=O)CNC(C)=O (stereo not drawn) | > 100000 nM | – | – | 85.2 | – | > 100 µM | – | – | – | – | – | – | – | > 100 | – | > 100 | > 100 | – | > 100 | > 100
5 | CC(=O)c1nccc2c1c(C)nc1ccccc12 | > 100000 nM | – | – | > 100 | – | > 100 µM | – | – | 67.9 | – | > 100 | – | > 100 µM | > 100 | > 100 | > 100 | > 100 | > 100 | > 100 | > 100
6 | C=C1C(=O)C[C@@]23CCC[C@@]12CC(O)C3 (stereo partly drawn) | > 48900 nM | – | – | 42.1 | – | – | – | – | 45.8 | – | 42.8 | – | > 100 µM | – | 33.8 | – | – | 33.6 | – | 67.5
